Measured values taken from patent publication US20230141603A1, “BENZODIAZEPINE DERIVATIVES AS GABA A GAMMA1 PAM” (Hoffmann-La Roche Inc., priority 2021, published 2023).

Target: T1, h-GABAA α2β2γ1 (Homo sapiens, UniProt P47869+Q8N1C3)
T1 sequence (P47869 29-451): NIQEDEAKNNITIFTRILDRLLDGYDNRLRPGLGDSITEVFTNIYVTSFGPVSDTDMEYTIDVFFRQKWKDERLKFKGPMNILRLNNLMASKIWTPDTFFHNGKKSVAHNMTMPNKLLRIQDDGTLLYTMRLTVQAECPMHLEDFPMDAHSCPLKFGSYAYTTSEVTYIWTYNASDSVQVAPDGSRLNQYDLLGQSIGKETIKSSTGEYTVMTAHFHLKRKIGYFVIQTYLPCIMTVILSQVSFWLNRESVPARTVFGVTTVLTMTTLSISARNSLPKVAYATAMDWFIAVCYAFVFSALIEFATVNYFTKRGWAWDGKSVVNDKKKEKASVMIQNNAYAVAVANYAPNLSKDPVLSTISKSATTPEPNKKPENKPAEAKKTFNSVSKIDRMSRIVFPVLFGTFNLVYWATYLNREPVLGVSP
T1 sequence (P47870 25-512 partner limits assumed): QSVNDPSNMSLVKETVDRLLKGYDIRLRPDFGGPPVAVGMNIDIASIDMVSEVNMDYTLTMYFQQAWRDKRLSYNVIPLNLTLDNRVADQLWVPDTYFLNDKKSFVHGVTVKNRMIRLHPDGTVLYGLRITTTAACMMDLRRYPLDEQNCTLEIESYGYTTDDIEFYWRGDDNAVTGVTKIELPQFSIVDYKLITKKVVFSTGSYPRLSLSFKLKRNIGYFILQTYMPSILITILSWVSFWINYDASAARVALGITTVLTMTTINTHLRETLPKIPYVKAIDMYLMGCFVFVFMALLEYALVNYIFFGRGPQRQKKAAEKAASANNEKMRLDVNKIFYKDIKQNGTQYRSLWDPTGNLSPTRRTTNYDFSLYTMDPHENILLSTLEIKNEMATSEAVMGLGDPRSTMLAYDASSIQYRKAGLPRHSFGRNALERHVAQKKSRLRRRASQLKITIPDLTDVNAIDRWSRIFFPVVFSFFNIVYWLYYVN
T1 sequence (Q8N1C3 36-465): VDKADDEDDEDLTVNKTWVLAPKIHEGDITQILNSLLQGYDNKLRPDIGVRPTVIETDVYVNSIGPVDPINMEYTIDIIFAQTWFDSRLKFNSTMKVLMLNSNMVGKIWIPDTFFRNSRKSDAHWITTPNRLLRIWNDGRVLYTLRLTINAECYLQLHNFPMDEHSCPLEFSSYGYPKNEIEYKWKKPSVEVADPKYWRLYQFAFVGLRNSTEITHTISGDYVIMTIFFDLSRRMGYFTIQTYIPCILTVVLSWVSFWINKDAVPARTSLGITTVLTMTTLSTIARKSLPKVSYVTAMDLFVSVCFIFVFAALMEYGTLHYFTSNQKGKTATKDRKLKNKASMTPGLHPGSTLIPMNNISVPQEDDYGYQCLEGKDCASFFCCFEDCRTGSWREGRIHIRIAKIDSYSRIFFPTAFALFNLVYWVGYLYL
Test: Radioligand binding assay, [3H]RO7239181 competition, HEK293F membranes
Parameters: signal peptide of human GABAA α5 subunit (Met1 to Ser31), replacing the α2 signal peptide (N); expressed in transfected cells; host or cells: HEK293F cells (ThermoFisher R79007), membranes

Row | SMILES | Ki [µM]
1 | Fc1cccc(F)c1C1=NCc2nnc(-c3ccncn3)n2-c2ccc(Br)c(Br)c21 [Example 43, 7,8-dibromo-6-(2,6-difluorophenyl)-1-pyrimidin-4-yl-4H-[1,2,4]triazolo[4,3-a][1,4]benzodiazepine] | 0.0058
2 | Clc1cccnc1C1=NCc2nnc(-c3ccncn3)n2-c2ccc(Br)c(Cl)c21 [Example 44, 8-bromo-7-chloro-6-(3-chloro-2-pyridyl)-1-pyrimidin-4-yl-4H-[1,2,4]triazolo[4,3-a][1,4]benzodiazepine] | 0.0096
3 | Fc1cccnc1C1=NCc2nnc(-c3cccnn3)n2-c2ccc(Br)c(Cl)c21 [Example 45, 8-bromo-7-chloro-6-(3-fluoro-2-pyridyl)-1-pyridazin-3-yl-4H-[1,2,4]triazolo[4,3-a][1,4]benzodiazepine] | 0.0158
4 | Fc1cccnc1C1=NCc2nnc(-c3ccncn3)n2-c2ccc(Br)c(Cl)c21 [Example 46, 8-bromo-7-chloro-6-(3-fluoro-2-pyridyl)-1-pyrimidin-4-yl-4H-[1,2,4]triazolo[4,3-a][1,4]benzodiazepine] | 0.0253
5 | Clc1cccnc1C1=NCc2nnc(-c3cccnn3)n2-c2ccc(Br)c(Cl)c21 [Example 47, 8-bromo-7-chloro-6-(3-chloro-2-pyridyl)-1-pyridazin-3-yl-4H-[1,2,4]triazolo[4,3-a][1,4]benzodiazepine] | 0.0159
6 | Cc1ccc2c(c1Cl)C(c1c(F)cccc1F)=NCc1nnc(-c3cccnn3)n1-2 [Example 48, 7-chloro-6-(2,6-difluorophenyl)-8-methyl-1-pyridazin-3-yl-4H-[1,2,4]triazolo[4,3-a][1,4]benzodiazepine] | 0.0083
7 | Cc1ccc2c(c1Cl)C(c1c(F)cccc1F)=NCc1nnc(-c3ccncn3)n1-2 [Example 49, 7-chloro-6-(2,6-difluorophenyl)-8-methyl-1-pyrimidin-4-yl-4H-[1,2,4]triazolo[4,3-a][1,4]benzodiazepine] | 0.0141
8 | Cc1nnc2n1-c1ccc(Br)c(Cl)c1C(c1c(F)cccc1Cl)=NC2 [Example 50, 8-bromo-7-chloro-6-(2-chloro-6-fluoro-phenyl)-1-methyl-4H-[1,2,4]triazolo[4,3-a][1,4]benzodiazepine] | 0.0047
9 | Fc1cccnc1C1=NCc2nnc(-c3cccnn3)n2-c2ccc(Cl)c(Cl)c21 [Example 54, 7,8-dichloro-6-(3-fluoro-2-pyridyl)-1-pyridazin-3-yl-4H-[1,2,4]triazolo[4,3-a][1,4]benzodiazepine] | 0.0302
10 | Fc1cccnc1C1=NCc2nnc(-c3ccncn3)n2-c2ccc(Cl)c(Cl)c21 [Example 55, 7,8-dichloro-6-(3-fluoro-2-pyridyl)-1-pyrimidin-4-yl-4H-[1,2,4]triazolo[4,3-a][1,4]benzodiazepine] | 0.0185
11 | COc1ccc2c(c1Cl)C(c1c(F)cccc1F)=NCc1nnc(-c3cccnn3)n1-2 [Example 57, 7-chloro-6-(2,6-difluorophenyl)-8-methoxy-1-pyridazin-3-yl-4H-[1,2,4]triazolo[4,3-a][1,4]benzodiazepine] | 0.0579
12 | Cn1cc(-c2nnc3n2-c2ccc(Cl)c(Cl)c2C(c2ncccc2F)=NC3)cn1 [Example 58, 7,8-dichloro-6-(3-fluoro-2-pyridyl)-1-(1-methylpyrazol-4-yl)-4H-[1,2,4]triazolo[4,3-a][1,4]benzodiazepine] | 0.0331
13 | O=c1[nH]nc2n1-c1ccc(Cl)c(Cl)c1C(c1ncccc1F)=NC2 [Example 59, 7,8-dichloro-6-(3-fluoro-2-pyridyl)-2,4-dihydro-[1,2,4]triazolo[4,3-a][1,4]benzodiazepin-1-one] | 0.0263
14 | Fc1cccnc1C1=NCc2nncn2-c2ccc(Cl)c(Cl)c21 [Example 60, 7,8-dichloro-6-(3-fluoro-2-pyridyl)-4H-[1,2,4]triazolo[4,3-a][1,4]benzodiazepine] | 0.0389
15 | COc1ccc2c(c1Cl)C(c1c(F)cccc1F)=NCc1nnc(-c3ccncn3)n1-2 [Example 61, 7-chloro-6-(2,6-difluorophenyl)-8-methoxy-1-pyrimidin-4-yl-4H-[1,2,4]triazolo[4,3-a][1,4]benzodiazepine] | 0.0776
16 | COc1ccc2c(c1Cl)C(c1c(F)cccc1F)=NCc1nnc(-c3cccnc3)n1-2 [Example 62, 7-chloro-6-(2,6-difluorophenyl)-8-methoxy-1-(3-pyridyl)-4H-[1,2,4]triazolo[4,3-a][1,4]benzodiazepine] | 0.0553
17 | Fc1cccnc1C1=NCc2nnc(C3CC3)n2-c2ccc(Cl)c(Cl)c21 [Example 65, 7,8-dichloro-1-cyclopropyl-6-(3-fluoro-2-pyridyl)-4H-[1,2,4]triazolo[4,3-a][1,4]benzodiazepine] | 0.0649
18 | Fc1cccnc1C1=NCc2nnc(-c3ccncn3)n2-c2ccc(C(F)(F)F)c(Cl)c21 [Example 69, 7-chloro-6-(3-fluoro-2-pyridyl)-1-pyrimidin-4-yl-8-(trifluoromethyl)-4H-[1,2,4]triazolo[4,3-a][1,4]benzodiazepine] | 0.0636
19 | Cn1cc(-c2nnc3n2-c2ccc(C(F)(F)F)c(Cl)c2C(c2ncccc2F)=NC3)cn1 [Example 70, 7-chloro-6-(3-fluoro-2-pyridyl)-1-(1-methylpyrazol-4-yl)-8-(trifluoromethyl)-4H-[1,2,4]triazolo[4,3-a][1,4]benzodiazepine] | 0.0414
20 | Cc1nnc2n1-c1ccc(Cl)c(Cl)c1C(c1ncccc1F)=NC2 [Example 71, 7,8-dichloro-6-(3-fluoro-2-pyridyl)-1-methyl-4H-[1,2,4]triazolo[4,3-a][1,4]benzodiazepine] | 0.0376
21 | Fc1cccnc1C1=NCc2nnc(-c3cccnn3)n2-c2ccc(C(F)(F)F)c(Cl)c21 [Example 72, 7-chloro-6-(3-fluoro-2-pyridyl)-1-pyridazin-3-yl-8-(trifluoromethyl)-4H-[1,2,4]triazolo[4,3-a][1,4]benzodiazepine] | 0.0301
22 | Fc1cccnc1C1=NCc2nnc(C3CC3)n2-c2ccc(Br)c(Cl)c21 [Example 77, 8-bromo-7-chloro-1-cyclopropyl-6-(3-fluoro-2-pyridyl)-4H-[1,2,4]triazolo[4,3-a][1,4]benzodiazepine] | 0.0196
23 | Cc1nnc2n1-c1ccc(C(F)(F)F)c(Cl)c1C(c1ncccc1F)=NC2 [Example 78, 7-chloro-6-(3-fluoro-2-pyridyl)-1-methyl-8-(trifluoromethyl)-4H-[1,2,4]triazolo[4,3-a][1,4]benzodiazepine] | 0.0508
24 | COc1ccc2c(c1Cl)C(c1c(F)cccc1F)=NCc1nnc(C3CC3)n1-2 [Example 79, 7-chloro-1-cyclopropyl-6-(2,6-difluorophenyl)-8-methoxy-4H-[1,2,4]triazolo[4,3-a][1,4]benzodiazepine] | 0.0512
25 | COc1nnc2n1-c1ccc(Cl)c(Cl)c1C(c1c(F)cccc1F)=NC2 [Example 90, 7,8-dichloro-6-(2,6-difluorophenyl)-1-methoxy-4H-[1,2,4]triazolo[4,3-a][1,4]benzodiazepine] | 0.0058
26 | CO[C@H]1C[C@H](c2nnc3n2-c2ccc(Cl)c(Cl)c2C(c2c(F)cccc2F)=NC3)C1 [Example 91, trans-7,8-dichloro-6-(2,6-difluorophenyl)-1-(3-methoxycyclobutyl)-4H-[1,2,4]triazolo[4,3-a][1,4]benzodiazepine] | 0.0363
27 | Fc1cccc(F)c1C1=NCc2nnc(-c3cccnn3)n2-c2ccc(Br)c(Cl)c21 [Example 104, 8-bromo-7-chloro-6-(2,6-difluorophenyl)-1-pyridazin-3-yl-4H-[1,2,4]triazolo[4,3-a][1,4]benzodiazepine] | 0.0023
28 | Cc1ncc2n1-c1ccc(Cl)cc1C(c1ccccc1F)=NC2 [Midazolam, reference compound] | 0.738
